{"source": "patent US20220281848A1", "about": "“PYRAZOLE-SUBSTITUTED PYRROLIDINONES AS HERBICIDES” (FMC Corporation, priority 2019, published 2022)", "system": "plants", "assay": "Test D pre-emergence, other plants of Tables D1 and D3", "format": "in vivo", "settings": "pre-emergence, 100=total damage, 0=no damage", "method_in_brief": "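Damage was rated visually from 0 (none) to 100 (total), at 20 DAA for pre-emergence and 15 d for post-emergence. Plants grew from safener-treated seed in a glasshouse at 24/18° C. or 20/16° C. day/night, 65% humidity, watered twice daily.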", "data": [{"smiles": "CN1CC(c2cc(C(F)(F)F)n(C)n2)C(C(=O)Nc2cccc(F)c2C(F)(F)F)C1=O", "note": "(racemic) [Compound 19]", "values": [{"measurement": "damage to plant, ALOMY", "setting": "rate 15, 20 DAA", "value": 0}, {"measurement": "damage to plant, AVEFA", "setting": "rate 15, 20 DAA", "value": 0}, {"measurement": "damage to plant, BEAVA", "setting": "rate 15, 20 DAA", "value": 0}, {"measurement": "damage to plant, BROTE", "setting": "rate 15, 20 DAA", "value": 0}, {"measurement": "damage to plant, BRSNN", "setting": "rate 15, 20 DAA", "value": 0}, {"measurement": "damage to plant, CHEAL", "setting": "rate 15, 20 DAA", "value": 0}, {"measurement": "damage to plant, GALAP", "setting": "rate 15, 20 DAA", "value": 0}, {"measurement": "damage to plant, HORVW", "setting": "rate 15, 20 DAA", "value": 0}, {"measurement": "damage to plant, KCHSC", "setting": "rate 15, 20 DAA", "value": 0}, {"measurement": "damage to plant, LOLPE", "setting": "rate 15, 20 DAA", "value": 0}, {"measurement": "damage to plant, POAAN", "setting": "rate 15, 20 DAA", "value": 0}, {"measurement": "damage to plant, POLCO", "setting": "rate 15, 20 DAA", "value": 0}, {"measurement": "damage to plant, SINAR", "setting": "rate 15, 20 DAA", "value": 0}, {"measurement": "damage to plant, STEME", "setting": "rate 15, 20 DAA", "value": 0}, {"measurement": "damage to plant, VERPE", "setting": "rate 15, 20 DAA", "value": 0}, {"measurement": "damage to plant, ALOMY", "setting": "rate 30, 20 DAA", "value": 0}, {"measurement": "damage to plant, AVEFA", "setting": "rate 30, 20 DAA", "value": 0}, {"measurement": "damage to plant, BEAVA", "setting": "rate 30, 20 DAA", "value": 0}, {"measurement": "damage to plant, BROTE", "setting": "rate 30, 20 DAA", "value": 0}, {"measurement": "damage to plant, BRSNN", "setting": "rate 30, 20 DAA", "value": 0}, {"measurement": "damage to plant, CHEAL", "setting": "rate 30, 20 DAA", "value": 0}, {"measurement": "damage to plant, GALAP", "setting": "rate 30, 20 DAA", "value": 0}, {"measurement": "damage to plant, HORVW", "setting": "rate 30, 20 DAA", "value": 0}, {"measurement": "damage to plant, KCHSC", "setting": "rate 30, 20 DAA", "value": 0}, {"measurement": "damage to plant, LOLPE", "setting": "rate 30, 20 DAA", "value": 0}, {"measurement": "damage to plant, POAAN", "setting": "rate 30, 20 DAA", "value": 0}, {"measurement": "damage to plant, POLCO", "setting": "rate 30, 20 DAA", "value": 0}, {"measurement": "damage to plant, SINAR", "setting": "rate 30, 20 DAA", "value": 0}, {"measurement": "damage to plant, STEME", "setting": "rate 30, 20 DAA", "value": 0}, {"measurement": "damage to plant, VERPE", "setting": "rate 30, 20 DAA", "value": 0}, {"measurement": "damage to plant, ALOMY", "setting": "rate 60, 20 DAA", "value": 0}, {"measurement": "damage to plant, AVEFA", "setting": "rate 60, 20 DAA", "value": 0}, {"measurement": "damage to plant, BEAVA", "setting": "rate 60, 20 DAA", "value": 0}, {"measurement": "damage to plant, BROTE", "setting": "rate 60, 20 DAA", "value": 0}, {"measurement": "damage to plant, BRSNN", "setting": "rate 60, 20 DAA", "value": 0}, {"measurement": "damage to plant, CHEAL", "setting": "rate 60, 20 DAA", "value": 0}, {"measurement": "damage to plant, GALAP", "setting": "rate 60, 20 DAA", "value": 0}, {"measurement": "damage to plant, HORVW", "setting": "rate 60, 20 DAA", "value": 0}, {"measurement": "damage to plant, KCHSC", "setting": "rate 60, 20 DAA", "value": 0}, {"measurement": "damage to plant, LOLPE", "setting": "rate 60, 20 DAA", "value": 0}, {"measurement": "damage to plant, POAAN", "setting": "rate 60, 20 DAA", "value": 10}, {"measurement": "damage to plant, POLCO", "setting": "rate 60, 20 DAA", "value": 0}, {"measurement": "damage to plant, SINAR", "setting": "rate 60, 20 DAA", "value": 0}, {"measurement": "damage to plant, STEME", "setting": "rate 60, 20 DAA", "value": 0}, {"measurement": "damage to plant, VERPE", "setting": "rate 60, 20 DAA", "value": 0}, {"measurement": "damage to plant, ALOMY", "setting": "rate 130, 20 DAA", "value": 0}, {"measurement": "damage to plant, AVEFA", "setting": "rate 130, 20 DAA", "value": 0}, {"measurement": "damage to plant, BEAVA", "setting": "rate 130, 20 DAA", "value": 0}, {"measurement": "damage to plant, BROTE", "setting": "rate 130, 20 DAA", "value": 0}, {"measurement": "damage to plant, BRSNN", "setting": "rate 130, 20 DAA", "value": 0}, {"measurement": "damage to plant, CHEAL", "setting": "rate 130, 20 DAA", "value": 0}, {"measurement": "damage to plant, GALAP", "setting": "rate 130, 20 DAA", "value": 0}, {"measurement": "damage to plant, HORVW", "setting": "rate 130, 20 DAA", "value": 0}, {"measurement": "damage to plant, KCHSC", "setting": "rate 130, 20 DAA", "value": 0}, {"measurement": "damage to plant, LOLPE", "setting": "rate 130, 20 DAA", "value": 0}, {"measurement": "damage to plant, POAAN", "setting": "rate 130, 20 DAA", "value": 20}, {"measurement": "damage to plant, POLCO", "setting": "rate 130, 20 DAA", "value": 0}, {"measurement": "damage to plant, SINAR", "setting": "rate 130, 20 DAA", "value": 0}, {"measurement": "damage to plant, STEME", "setting": "rate 130, 20 DAA", "value": 0}, {"measurement": "damage to plant, VERPE", "setting": "rate 130, 20 DAA", "value": 0}, {"measurement": "damage to plant, ALOMY", "setting": "rate 250, 20 DAA", "value": 20}, {"measurement": "damage to plant, AVEFA", "setting": "rate 250, 20 DAA", "value": 10}, {"measurement": "damage to plant, BEAVA", "setting": "rate 250, 20 DAA", "value": 0}, {"measurement": "damage to plant, BROTE", "setting": "rate 250, 20 DAA", "value": 10}, {"measurement": "damage to plant, BRSNN", "setting": "rate 250, 20 DAA", "value": 0}, {"measurement": "damage to plant, CHEAL", "setting": "rate 250, 20 DAA", "value": 10}, {"measurement": "damage to plant, GALAP", "setting": "rate 250, 20 DAA", "value": 0}, {"measurement": "damage to plant, HORVW", "setting": "rate 250, 20 DAA", "value": 0}, {"measurement": "damage to plant, KCHSC", "setting": "rate 250, 20 DAA", "value": 0}, {"measurement": "damage to plant, LOLPE", "setting": "rate 250, 20 DAA", "value": 30}, {"measurement": "damage to plant, POAAN", "setting": "rate 250, 20 DAA", "value": 80}, {"measurement": "damage to plant, POLCO", "setting": "rate 250, 20 DAA", "value": 0}, {"measurement": "damage to plant, SINAR", "setting": "rate 250, 20 DAA", "value": 0}, {"measurement": "damage to plant, STEME", "setting": "rate 250, 20 DAA", "value": 10}, {"measurement": "damage to plant, VERPE", "setting": "rate 250, 20 DAA", "value": 60}, {"measurement": "damage to plant, ALOMY", "setting": "rate 500, 20 DAA", "value": 70}, {"measurement": "damage to plant, AVEFA", "setting": "rate 500, 20 DAA", "value": 70}, {"measurement": "damage to plant, BEAVA", "setting": "rate 500, 20 DAA", "value": 0}, {"measurement": "damage to plant, BROTE", "setting": "rate 500, 20 DAA", "value": 30}, {"measurement": "damage to plant, BRSNN", "setting": "rate 500, 20 DAA", "value": 20}, {"measurement": "damage to plant, CHEAL", "setting": "rate 500, 20 DAA", "value": 20}, {"measurement": "damage to plant, GALAP", "setting": "rate 500, 20 DAA", "value": 0}, {"measurement": "damage to plant, HORVW", "setting": "rate 500, 20 DAA", "value": 20}, {"measurement": "damage to plant, KCHSC", "setting": "rate 500, 20 DAA", "value": 0}, {"measurement": "damage to plant, LOLPE", "setting": "rate 500, 20 DAA", "value": 80}, {"measurement": "damage to plant, POAAN", "setting": "rate 500, 20 DAA", "value": 80}, {"measurement": "damage to plant, POLCO", "setting": "rate 500, 20 DAA", "value": 10}, {"measurement": "damage to plant, SINAR", "setting": "rate 500, 20 DAA", "value": 0}, {"measurement": "damage to plant, STEME", "setting": "rate 500, 20 DAA", "value": 60}, {"measurement": "damage to plant, VERPE", "setting": "rate 500, 20 DAA", "value": 70}]}]}
